Here are results for ten compounds from PubChem BioAssay (NCI).

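Briefly, cells in 96-well plates were exposed to five compound concentrations for 48 h, and endpoints were estimated by linear interpolation. Here, GI50 denotes the concentration required for 50% inhibition of growth. TGI is the concentration that stops growth completely.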 Some results are limits rather than exact numbers.

Among the test systems are ACHN renal; HCT-116 colon; HT29 colon; IGROV1 ovarian; MDA-MB-435; PC-3 prostate; U251 CNS; UACC-62 melanoma; DLD-1 colon.
Experiment in all cases: growth of human tumour cells (NCI), 48 h

Take `Cn1cc(-c2csc(-c3cn(C)c4ccc(F)cc34)n2)c2cnccc21`: the GI50 with ACHN renal was 1.84 µM; in the assay on HCT-116 colon, 1.66 µM; with HT29 colon, 1.47 µM; in the assay on IGROV1 ovarian, 1.96 µM; in the assay on MDA-MB-435, 1.67 µM; with PC-3 prostate, 1.71 µM. Further, the GI50 in the assay on U251 CNS was 1.8 µM; in the assay with UACC-62 melanoma, 1.74 µM. Moreover, the TGI with ACHN renal came to 3.26 µM; in the assay on HCT-116 colon, 3.06 µM; in the assay on HT29 colon, 3 µM; with IGROV1 ovarian it was 3.63 µM; with MDA-MB-435, 3.1 µM; with PC-3 prostate it was 3.31 µM. In addition, the TGI was determined as 3.23 µM in the assay on U251 CNS and 3.2 µM in the assay with UACC-62 melanoma.
Take `NC(N)=N/N=C(\N=Nc1ccccc1)c1ccc(Cl)cc1`: the GI50 in the assay with ACHN renal was 2.51 µM; with HCT-116 colon, 1.7 µM; with HT29 colon, 2.29 µM; with IGROV1 ovarian, 7.32 µM; with MDA-MB-435, 1.7 µM; in the assay with PC-3 prostate it was 2.48 µM. In addition, the GI50 is 2.39 µM in the assay with U251 CNS and 1.13 µM in the assay on UACC-62 melanoma. Moreover, the TGI with ACHN renal was 8.06 µM; with HCT-116 colon, 3.6 µM; in the assay with HT29 colon, 5.39 µM; in the assay with IGROV1 ovarian it was 23 µM; in the assay on MDA-MB-435 it was 4.36 µM; in the assay on PC-3 prostate it was 11.3 µM. Further, the TGI in the assay on U251 CNS amounted to 7.55 µM; with UACC-62 melanoma it was 4.35 µM.
Turning to `COc1cc2c3c(n(CCCN(CCO)CCO)c(=O)c2cc1OC)-c1cc2c(cc1C3=O)OCO2`, the GI50 in the assay on ACHN renal is less than 0.01 µM; in the assay with HCT-116 colon, less than 0.01 µM; in the assay on HT29 colon, less than 0.01 µM; in the assay with MDA-MB-435, less than 0.0369 µM; in the assay on U251 CNS, less than 0.01 µM; in the assay on UACC-62 melanoma, less than 0.01 µM. Besides, the TGI in the assay with ACHN renal was 0.0855 µM; in the assay with HCT-116 colon, 0.0679 µM; in the assay on HT29 colon it was 1.03 µM; with IGROV1 ovarian, more than 100 µM; in the assay on MDA-MB-435, 0.842 µM; with PC-3 prostate, 2.12 µM. For the same compound, the TGI in the assay on U251 CNS amounted to 0.628 µM; in the assay with UACC-62 melanoma, 0.503 µM.
Turning to `COc1cc(/C=C/C(=O)Oc2ccccc2)ccc1C(=O)O/C=C/c1ccccc1`, the TGI with ACHN renal, in the assay on DLD-1 colon, with HCT-116 colon, with HT29 colon, in the assay on IGROV1 ovarian and with MDA-MB-435 was more than 100 µM each time. Moreover, the TGI with PC-3 prostate, in the assay with U251 CNS and in the assay with UACC-62 melanoma was more than 100 µM each time.
With `O=C(N/N=C/c1ccc(O)cc1O)c1cccnc1`, the GI50 in the assay on ACHN renal is 1.47 µM; in the assay on HCT-116 colon, 0.876 µM; with HT29 colon it was 7.52 µM; in the assay with IGROV1 ovarian it was 0.776 µM; in the assay with MDA-MB-435 it was 7.52 µM; in the assay with PC-3 prostate, 4.14 µM. The GI50 in the assay with U251 CNS is 2.42 µM; with UACC-62 melanoma it was 2.38 µM. Further, the TGI in the assay on ACHN renal is more than 100 µM; in the assay on HCT-116 colon, more than 100 µM; in the assay with HT29 colon it was more than 100 µM; in the assay on IGROV1 ovarian, 23.6 µM; in the assay on MDA-MB-435 it was more than 100 µM; with PC-3 prostate it was 46.9 µM. Further, the figures for the TGI in the assay on U251 CNS and in the assay with UACC-62 melanoma were 41.5 µM and 17.5 µM, respectively.
As for `Oc1ccc(Oc2cnc3ccccc3n2)cc1`, the GI50 with ACHN renal is 76.6 µM; with HCT-116 colon, more than 100 µM; in the assay with HT29 colon it was more than 100 µM; in the assay on IGROV1 ovarian it was more than 100 µM; with MDA-MB-435 it was more than 100 µM; in the assay with PC-3 prostate, 54.7 µM. The GI50 in the assay on U251 CNS and in the assay with UACC-62 melanoma was more than 100 µM throughout. Besides, the TGI in the assay on ACHN renal, with HCT-116 colon, in the assay on HT29 colon, with IGROV1 ovarian, in the assay on MDA-MB-435 and in the assay on PC-3 prostate was more than 100 µM in each case. In addition, the TGI in the assay on U251 CNS and in the assay with UACC-62 melanoma was more than 100 µM throughout.
As for `CS(=O)(=O)CS(=O)(=O)OCCCl`, the TGI in the assay on ACHN renal turned out to be 524 µM; in the assay on DLD-1 colon, 1450 µM; in the assay on HCT-116 colon it was 661 µM; in the assay with HT29 colon it was 1320 µM; in the assay with IGROV1 ovarian, 911 µM; in the assay with MDA-MB-435, 2330 µM. Further, the TGI was found to be 990 µM in the assay with PC-3 prostate, 664 µM in the assay on U251 CNS and 268 µM with UACC-62 melanoma.
As to `CC(=O)NC1CONC1=O` (stereo unspecified), the TGI with ACHN renal, with HCT-116 colon, in the assay with HT29 colon, in the assay on IGROV1 ovarian, in the assay on MDA-MB-435 and with PC-3 prostate was more than 100 µM throughout. Moreover, the TGI with U251 CNS and in the assay on UACC-62 melanoma was more than 100 µM throughout.
Turning to `CC1(C)N=C(N)N=C(N)N1c1cccc(OCCOc2cccc([N+](=O)[O-])c2)c1`, the GI50 in the assay on ACHN renal was more than 100 µM; with HCT-116 colon, 0.777 µM; in the assay on HT29 colon it was 0.583 µM; with IGROV1 ovarian it was 0.565 µM; in the assay with MDA-MB-435 it was 0.495 µM; with PC-3 prostate, 0.0906 µM. Besides, the GI50 with U251 CNS is 0.808 µM; with UACC-62 melanoma, 2.28 µM. For the same compound, the TGI in the assay with ACHN renal was more than 100 µM; in the assay with HCT-116 colon it was more than 100 µM; in the assay with HT29 colon, more than 100 µM; in the assay with IGROV1 ovarian it was more than 100 µM; in the assay with MDA-MB-435, more than 100 µM; in the assay on PC-3 prostate, more than 38.5 µM. Also, the TGI with U251 CNS and in the assay with UACC-62 melanoma was more than 100 µM each time.
For the compound `C=C(C)[C@@H]1CC[C@]2(C)[C@H](CC[C@@H]3[C@@H]([C@@](C)(O)CCC=C(C)C)CC[C@]32C)[C@@]1(C)CCC(=O)O`, the GI50 with ACHN renal was 21.7 µM; with HCT-116 colon, 15.4 µM; in the assay with HT29 colon, 24.1 µM; with IGROV1 ovarian, 18.7 µM; in the assay with MDA-MB-435, 17.9 µM; in the assay on PC-3 prostate it was 11.3 µM. Also, the GI50 is 16.6 µM in the assay with U251 CNS and 13.9 µM in the assay with UACC-62 melanoma. In addition, the TGI in the assay with ACHN renal was 54.3 µM; in the assay on HCT-116 colon, 29.8 µM; with HT29 colon, more than 100 µM; in the assay with IGROV1 ovarian, 38.4 µM; in the assay with MDA-MB-435, 38.6 µM; in the assay with PC-3 prostate it was 27.2 µM. In addition, the figures for the TGI with U251 CNS and with UACC-62 melanoma were 31.8 µM and 29.5 µM, respectively.
